“And” between values parts separate entries of the source, which are not always exact repeats. Equal entries are not always repeated. Where a SMILES comes first, the peptide text is derived from it. Where no end group is shown, it is not given here.

T1 sequence (P0A722 whole entry): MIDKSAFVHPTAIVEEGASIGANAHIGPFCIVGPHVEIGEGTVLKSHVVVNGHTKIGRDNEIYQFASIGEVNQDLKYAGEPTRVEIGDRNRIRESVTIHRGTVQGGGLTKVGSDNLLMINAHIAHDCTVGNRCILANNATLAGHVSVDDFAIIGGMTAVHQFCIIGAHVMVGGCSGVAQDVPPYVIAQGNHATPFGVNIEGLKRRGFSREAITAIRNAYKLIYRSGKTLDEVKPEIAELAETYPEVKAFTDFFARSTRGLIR

The subject of one experiment is E. coli.
Assay: not given
Conditions: peptide expressed fused to GST in E. coli; cited from earlier work.
SSGWMLDPIAGKWSR [Peptide 920]: the Bacterial growth entry is recorded as “inhibited bacterial growth”.

The next experiment concerns the target T1, E. coli LpxA (Escherichia coli, UniProt P0A722).
Assay: not given
Conditions: previous enzymatic evidence; cited from earlier work.
As for SSGWMLDPIAGKWSR [Peptide 920], the Mode of inhibition entry is “largely competitive with respect to ACP”.

The target in a further experiment is T1, E. coli LpxA. As to the kind of experiment: LpxA acyltransferase inhibition assay ([α-32P]UDP-GlcNAc conversion, TLC). In kind it is biochemical. Also noted: made in house; host or cells: E. coli BL21(DE3)/pLysE/pTO1. Conditions: 1 µM UDP-GlcNAc, 1 µM R-3-hydroxymyristoyl-ACP, 1 nM LpxA, 30 °C, 10% DMSO; SD of triplicates. As to the method: The peptides were assayed for acyl transferase inhibitory activity under conditions where the concentrations of UDP-GlcNAc and R-3-hydroxymyristoyl-ACP were 1 µM each. […] Peptide CR21 and CR23 still have good inhibitory potential of 10 μM albeit lower than peptide CR20.
The LpxA enzymatic reaction monitors the conversion of [α-^32P]UDP-GlcNAc to [α-^32P]UDP-3-O-(R-3-hydroxymyristoyl)- GlcNAc. The assay components consist of 40 mM HEPES buffer, pH 8, 1 mg/ml BSA, 1 μM R-3-hydroxymyristoyl-ACP, and 1 μM [α-^32P]UDP-GlcNAc (2 × 10^6 cpm/nmol). […] The final concentration of DMSO was adjusted to 10% to match the peptide solvent in all enzymatic assays.
The reactions were started by the addition of 1 nM of LpxA and incubated at 30 °C for a maximum of 10 min. Three or four time points were collected during this time. Termination of the reaction was accomplished by the addition of 1 μl portions onto a silica thin layer chromatography (TLC) plate. The TLC plates were air dried for 10 min before developing in chloroform/methanol/water/acetic acid (25:15:4:2, v/v). Plates were exposed to PhosphorImager screens overnight, and the data were evaluated with Molecular Dynamics PhosphorImager equipped with ImageQuant software. […] To determine the IC50 at 30 °C, the data were fit to the following equations,1 vi/vc=IC50/(I+IC50) or1a %activity=100/(1+I/IC50) vi represents the initial rate, at given concentrations of inhibitor, vc represents the initial velocity of the control reaction without inhibitor, and I represents the inhibitor concentration. The IC50 determination represents the concentration of inhibitor needed to inhibit 50% of the enzyme activity.
Take GWMLDPIAGKWSR [CR19]: the midpoint of inhibition, the IC50, lay at 0.077 ± 0.003 µM.
Same read-out and setting: the value for GWMLDPIA [CR24] was more than 100 µM.
Same read-out and setting: the same measure for GWMLDPIAGKW [CR23]: 10 ± 0.3 µM; for SSGWMLDPIAGKWS [CR21]: 12 ± 1.4 µM.
SSGWMLDPIAGKW [CR22]: half-maximal inhibition (IC50) was put at 9 ± 2.2 µM.
The same measure, in the same setting: the value for `CSCC[C@H](NC(=O)[C@@H](N)Cc1c[nH]c2ccccc12)C(=O)N[C@@H](CC(C)C)C(=O)N[C@@H](CC(=O)O)C(=O)O` [CR26, WMLD] (H-WMLD-OH) was more than 100 µM.
WMLDPI [CR25, WMLDPI] came in with a half-inhibitory concentration (IC50) of more than 100 µM.
Take WMLDPIAGKWSR [CR20]: the IC50 is ~0.05 µM and 0.05 µM.
